# Laboratory results: ChEMBL document CHEMBL3994622, “Design and synthesis of new RAF kinase-inhibiting antiproliferative quinoline derivatives. Part 2: Diarylurea derivatives” (Eur J Med Chem, 2017)
# How the values were obtained:
# SN12C = test: Growth inhibition of human SN12C cells incubated for 48 hrs by sulforhodamine B assay; format: functional
# SW-620 = test: Growth inhibition of human SW620 cells assessed as cell growth at 100 uM incubated for 48 hrs by sulforhodamine B assay relative to control; format: functional; conditions: SW-620, 48 h, read-out: Activity
# KM12 = test: Growth inhibition of human KM12 cells incubated for 48 hrs by sulforhodamine B assay; format: functional; conditions: KM12, 48 h
# NCI-H522 = test: Growth inhibition of human NCI-H522 cells incubated for 48 hrs by sulforhodamine B assay; format: functional; conditions: NCI-H522, 48 h
# TK-10 = test: Growth inhibition of human TK10 cells incubated for 48 hrs by sulforhodamine B assay; format: functional; conditions: TK-10, 48 h
# HL-60(TB) = test: Growth inhibition of human HL-60(TB) cells incubated for 48 hrs by sulforhodamine B assay; format: functional; conditions: HL-60, 48 h
# SF-268 = test: Growth inhibition of human SF268 cells incubated for 48 hrs by sulforhodamine B assay; format: functional; conditions: SF-268, 48 h
# HT-29 = test: Growth inhibition of human HT-29 cells incubated for 48 hrs by sulforhodamine B assay; format: functional; conditions: HT-29, 48 h
# MCF7 = test: Growth inhibition of human MCF7 cells incubated for 48 hrs by sulforhodamine B assay; format: functional; conditions: MCF7, 48 h
# SF-539 = test: Growth inhibition of human SF539 cells assessed as cell growth at 10 uM incubated for 48 hrs by sulforhodamine B assay relative to control; format: functional; conditions: SF-539, 48 h, read-out: Activity
# HCC 2998 = test: Growth inhibition of human HCC2998 cells assessed as cell growth at 100 uM incubated for 48 hrs by sulforhodamine B assay relative to control; format: functional; conditions: HCC 2998, 48 h, read-out: Activity
# NCI-H23 = test: Growth inhibition of human NCI-H23 cells incubated for 48 hrs by sulforhodamine B assay; format: functional; conditions: NCI-H23, 48 h
# CAKI-1 = test: Growth inhibition of human Caki1 cells incubated for 48 hrs by sulforhodamine B assay; format: functional; conditions: CAKI-1, 48 h
# DU-145 = test: Growth inhibition of human DU145 cells incubated for 48 hrs by sulforhodamine B assay; format: functional; conditions: DU-145, 48 h
# NCI-H226 = test: Growth inhibition of human NCI-H226 cells incubated for 48 hrs by sulforhodamine B assay; format: functional; conditions: NCI-H226, 48 h
# HOP-62 = test: Growth inhibition of human HOP62 cells incubated for 48 hrs by sulforhodamine B assay; format: functional; conditions: HOP-62, 48 h
# UACC-62 = test: Growth inhibition of human UACC62 cells incubated for 48 hrs by sulforhodamine B assay; format: functional; conditions: UACC-62, 48 h
# COLO 205 = test: Growth inhibition of human COLO205 cells incubated for 48 hrs by sulforhodamine B assay; format: functional; conditions: COLO 205, 48 h
# 786-0 = test: Growth inhibition of human 786-0 cells incubated for 48 hrs by sulforhodamine B assay; format: functional; conditions: 786-0, 48 h
# [1] = target: RAF proto-oncogene serine/threonine-protein kinase (Homo sapiens, UniProt P04049); test: Inhibition of human c-RAF using MEK1 as substrate in presence of [33P]ATP by Hotspot assay
# Hs-578T = test: Growth inhibition of human Hs 578T cells incubated for 48 hrs by sulforhodamine B assay; format: functional
# SK-MEL-5 = test: Growth inhibition of human SK-MEL-5 cells incubated for 48 hrs by sulforhodamine B assay; format: functional; conditions: SK-MEL-5, 48 h
# NCI/ADR-RES = test: Growth inhibition of human NCI/ADR-RES cells incubated for 48 hrs by sulforhodamine B assay; format: functional
# SNB-19 = test: Growth inhibition of human SNB19 cells incubated for 48 hrs by sulforhodamine B assay; format: functional; conditions: SNB-19, 48 h
# A549 = test: Growth inhibition of human A549/ATCC cells assessed as cell growth at 0.1 uM incubated for 48 hrs by sulforhodamine B assay relative to control; format: functional; conditions: A549, 48 h, read-out: Activity
# [2] = read-out: LC50 (the source's name)
# RAF proto-oncogene serine/threonine-protein kinase, sequence (P04049 whole entry): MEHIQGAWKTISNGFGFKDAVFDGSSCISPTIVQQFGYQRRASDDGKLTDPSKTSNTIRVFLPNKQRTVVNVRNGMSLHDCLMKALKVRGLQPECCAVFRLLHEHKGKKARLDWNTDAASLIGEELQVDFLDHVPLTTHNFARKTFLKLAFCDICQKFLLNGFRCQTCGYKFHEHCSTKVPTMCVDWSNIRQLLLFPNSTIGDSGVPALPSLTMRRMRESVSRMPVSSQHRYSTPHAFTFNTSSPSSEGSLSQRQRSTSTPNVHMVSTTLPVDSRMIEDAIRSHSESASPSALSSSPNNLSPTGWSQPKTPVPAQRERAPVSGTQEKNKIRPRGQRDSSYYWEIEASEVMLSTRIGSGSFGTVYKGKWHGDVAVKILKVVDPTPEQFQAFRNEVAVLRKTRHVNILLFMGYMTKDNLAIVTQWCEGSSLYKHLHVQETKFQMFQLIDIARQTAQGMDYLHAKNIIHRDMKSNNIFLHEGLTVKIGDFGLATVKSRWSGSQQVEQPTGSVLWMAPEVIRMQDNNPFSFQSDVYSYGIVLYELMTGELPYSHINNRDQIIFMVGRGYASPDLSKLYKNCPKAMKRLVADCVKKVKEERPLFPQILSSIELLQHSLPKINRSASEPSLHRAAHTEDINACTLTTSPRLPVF
structure (smiles),measurement,setting,value
COc1cc2cc(Oc3ccc(NC(=O)Nc4ccc(Cl)c(Cl)c4)cc3)c(C)nc2cc1OC,GI50,SN12C,3.39 µM
same,TGI,SN12C,20.5 µM
same,CC50,SN12C; [2],> 100 µM
same,growth at 100 µM,SW-620,-68%
same,GI50,KM12,3.22 µM
same,TGI,KM12,13.4 µM
same,CC50,KM12; [2],74.7 µM
same,GI50,NCI-H522,1.74 µM
same,TGI,NCI-H522,8.43 µM
same,CC50,NCI-H522; [2],59.5 µM
same,GI50,TK-10,3.46 µM
same,TGI,TK-10,9.18 µM
same,CC50,TK-10; [2],43.3 µM
same,GI50,HL-60(TB),2.76 µM
same,TGI,HL-60(TB),6.75 µM
same,CC50,HL-60(TB); [2],> 100 µM
same,GI50,SF-268,8.23 µM
same,LC50 (50% lethal concentration),SF-268,> 100 µM
same,TGI,SF-268,> 100 µM
same,GI50,HT-29,2.34 µM
same,TGI,HT-29,4.89 µM
same,CC50,HT-29; [2],10.6 µM
same,GI50,MCF7,2.89 µM
same,TGI,MCF7,13.8 µM
same,CC50,MCF7; [2],> 100 µM
same,growth at 10 µM,SF-539,29%
same,growth at 100 µM,HCC 2998,-9%
same,GI50,NCI-H23,3.36 µM
same,TGI,NCI-H23,15.9 µM
same,CC50,NCI-H23; [2],76.3 µM
same,GI50,CAKI-1,2.12 µM
same,TGI,CAKI-1,6.65 µM
same,CC50,CAKI-1; [2],49.5 µM
same,GI50,DU-145,4.27 µM
same,TGI,DU-145,17.1 µM
same,CC50,DU-145; [2],68.4 µM
same,GI50,NCI-H226,3.12 µM
same,TGI,NCI-H226,8.68 µM
same,CC50,NCI-H226; [2],35.8 µM
same,GI50,HOP-62,3.55 µM
same,TGI,HOP-62,11.9 µM
same,CC50,HOP-62; [2],34.4 µM
same,GI50,UACC-62,3.33 µM
same,TGI,UACC-62,19.2 µM
same,CC50,UACC-62; [2],71.2 µM
same,GI50,COLO 205,2.75 µM
same,TGI,COLO 205,6.5 µM
same,CC50,COLO 205; [2],21.5 µM
same,GI50,786-0,3.64 µM
same,TGI,786-0,17.7 µM
same,CC50,786-0; [2],65.2 µM
same,IC50,[1],0.22 µM
same,GI50,Hs-578T,3.53 µM
same,TGI,Hs-578T,9.68 µM
same,CC50,Hs-578T; [2],> 100 µM
same,GI50,SK-MEL-5,2.58 µM
same,TGI,SK-MEL-5,8.09 µM
same,CC50,SK-MEL-5; [2],30.8 µM
same,GI50,NCI/ADR-RES,2.6 µM
same,TGI,NCI/ADR-RES,16.9 µM
same,CC50,NCI/ADR-RES; [2],> 100 µM
same,GI50,SNB-19,4.26 µM
same,TGI,SNB-19,24 µM
same,CC50,SNB-19; [2],> 100 µM
same,growth at 0.1 µM,A549,94%
